From patent US20190289849A1, “Novel Plant Growth Regulators and Methods of Using Same” (Duke University, priority 2016, published 2019)
Entries after “also recorded” stand apart in the source; their conditions may differ.

Columns and labels:
Arabidopsis thaliana = assay: Lateral root capacity (emerged lateral roots after removal of the primary root apical meristem); format: in vivo; settings: for lateral root capacity / branching in combination with D15 (screen): 30 μM D15 plus apocarotenoid, normalized to D15 treatment; for rescue of D15 inhibition of lateral root branching: D15-treated plants, apocarotenoid concentration varied for maximum rescue
Arabidopsis = assay: High concentration (10 mM) apocarotenoid effects on plant growth; format: in vivo; settings: for herbicidal effect when sprayed on plants / method of lethality (phenotype): 10 mM per FIG. 11
Protocol: FIG. 10 illustrates the effect of high doses of β-cyclocitral and DHAD on root growth. A) The effect of adding small volumes of 10 mM apocarotenoids daily to either the shoots, root tip, or the middle of the root. B) A confocal image of a healthy root stained with propidium iodide, which marks dead cells. C) A root treated with 10 mM β-cyclocitral applied to the tip of the root.
FIG. 11 illustrates the effect of 10 mM apocarotenoids on plant development. A) The percent change in lateral root capacity, normalized to control plants. Abbreviations: dihydro-β-ionone (DHβI), dimethyl-β-cyclocitral (DMβC). β-cyclocitral (β-cyc), pseudoionone (PI), and dihydroactinidiolide (DHAD). B) Confocal image of a control root stained with propidium iodide. C) Image of a root treated with safranal. D) Images of leaves form a control plant. E) Images of leaves from a plant treated with pseudoionone.
At high concentrations (10 mM) of β-cyclocitral or DHAD, root length, shoot mass, and lateral root growth were inhibited. […] In one embodiment, safranal may be detrimental to Arabidopsis at concentrations as low as 500 μM.

lateral root clock = assay: Lateral root clock luminescence (pDR5:LUC) and pre-branch sites; format: in vivo, Arabidopsis thaliana
Protocol: (§1) To measure lateral root capacity, the primary root apical meristem of each seedling was sterilely excised at 7 days. The plants were given 3 days to grow out lateral roots, and then each emerged lateral root was counted using a dissection microscope, as described previously (Van Norman et al., Proceedings of the National Academy of Sciences of the United States of America, 2014. 111(13): p. E1300-E1309). Luciferase activity was measured as previously described, using exposure times of 7 min (Moreno-Risueno, M. A., et al., Science, 2010. 329(5997): p. 1306-1311). WOX5^+ and EN7^+ primordia were counted using a stereo zoom microscope (Zeiss). Lateral and primary root lengths for Arabidopsis thaliana and tomato were measured using ImageJ (National Institutes of Health) software. 3D images of rice root architecture were captured using a 360° revolving platform and these images were analyzed using GiA Roots (www.giaroots.org), as described previously by Topp (2013). Primary root lengths were determined by dissecting the root and measuring the length with a ruler. Shoot mass was measured after removing the shoots and drying them for 10 days at 60° C.
First, the effect of D15 on lateral root branching was characterized and is shown FIG. 1. […] By titrating D15 to its IC50 concentration (30 μM), the lateral root capacity was measured with enhanced sensitivity (FIGS. 1A-B). […]

lateral root primordia = assay: Lateral root primordia counts with WOX5 (stage 1) and EN7 (stage 3) markers, and primordia emergence; format: in vivo, Arabidopsis thaliana
Protocol: All seeds were in the Columbia-0 background. Seeds were sterilized with chlorine gas, incubated in 4° C. water for 2 days, and plated on 1% (wt/vol) Murashige and Skoog (1% MS) media with 1% agar. They were exposed to 100-130 μmol/(m^2s^1) illumination and grown vertically under long-day conditions at 22° C. Plants were analyzed at 7 days after stratification (das), unless noted otherwise. D15-treated media was made using D15 (N-(4-fluorobenzyl)-methoxycinnamic hydroxamic acid) synthesized by LeadGen Labs, LLC solubilized in DMSO. 100 mM D15 stock solution was diluted directly into 1% MS media for final concentrations ranging from 1 μM to 100 μM. For initial experiments testing the ability of apocarotenoids to rescue D15, plants were seeded on 1% MS media containing 30 μM D15 and 100 nM apocarotenoid (diluted from 1 mM stock solutions dissolved in DMSO). For subsequent experiments characterizing the effect of β-cyclocitral, plants were exposed to volatile analytical grade β-cyclocitral (≥97%, Sigma Aldrich) using 100×15 mm partitioned petri dishes. One side of the partition was filled with 25 μM β-cyclocitral diluted in 1% MS media. Seeds were plated on the other side of the partition, on 1% MS media. […] For norflurazone treatments, norflurazone (Chem Service) dissolved in DMSO was diluted to a final concentration of 500 nM norflurazone in 1% MS media. For all experiments, including those performed on tomatoes and rice, plants were never exposed to DMSO concentrations that exceeded 0.1%.
as §1
First, the effect of D15 on lateral root branching was characterized and is shown FIG. 1. […] NCEDs are a sub-group of CCDs that cleave carotenoids at the 11, 12′ positions. […] By titrating D15 to its IC50 concentration (30 μM), the lateral root capacity was measured with enhanced sensitivity (FIGS. 1A-B). To determine how D15 inhibits lateral root branching, its effect on the lateral root clock, which establishes the sites of lateral root initiation, was examined. To test this, a synthetic promoter driving luciferase (pDR5:LUC) was utilized. In control roots, luminescence intensity oscillates every six hours (FIG. 1C). Only the root cells that experience the peak oscillation intensity become competent to form lateral root pre-branch sites. […] To further characterize the effect of D15 on lateral root initiation, its effect on two stages of primordia development was determined, as marked by WOX5 (pWOX5:GFP) and EN7 (pEN7:GAL4; UAS:H2A-GFP). These lines allow visualization of the QC at stage 1 of primordia development and the endodermis at stage 3 of development, respectively. […] This further supports the lateral root clock evidence that D15 inhibits the initiation of lateral root primordia.

Heinz tomatoes = assay: Tomato primary and lateral root growth; format: in vivo
Protocol: as §1, with “Heinz tomatoes were used for all tomato experiments. Seeds were sterilized using 40% liquid bleach for 30 min, then plated on 1% MS media in 120×120×17 mm square petri dishes. Seeds were kept in the dark at room temperature for 3 days, and then exposed to 100-130 μmol/(m^2s^1) illumination and grown vertically under long-day conditions at 22° C. For treating tomatoes, β-cyclocitral, norflurazone, and D15 were added directly to the media, at the concentrations described in the figures. Norflurazone was diluted to a final concentration of 1 μM in media. Tomato phenotypes were analyzed at 6 das. To measure” for “To measure”, “111(13): p. […]-[…]). Luciferase activity” for “111(13): p. E1300-E1309). Luciferase activity”

LeCCD1 = settings: in vitro; cited from earlier work
[1] = IC50 concentration of D15 (30 μM)

CC1=C[C@H](O/C=C2/C(=O)O[C@@H]3c4ccccc4C[C@H]23)OC1=O [GR24, reference compound]
lateral root capacity / branching in combination with D15 (screen) (Arabidopsis thaliana): further decreased

CC1=C(C=O)C(C)CCC1 (stereo not drawn)
rescue of D15 inhibition of lateral root branching (Arabidopsis thaliana): did not have the capacity to rescue | herbicidal effect when sprayed on plants (Arabidopsis): herbicidal effects

CC1=CC(=O)CC(C)(C)[C@@]1(O)/C=C/C(C)=C\C(=O)O [ABA, abscisic acid, reference compound]
lateral root capacity / branching in combination with D15 (screen) (Arabidopsis thaliana): further decreased

CC(=O)/C=C/C1=C(C)CCCC1(C)C [β-ionone]
rescue of D15 inhibition of lateral root branching (Arabidopsis thaliana): did not have the capacity to rescue

CC1(C)CCC[C@@]2(C)OC(=O)C=C12 [DHAD, dihydroactinidiolide]
lateral root capacity / branching in combination with D15 (screen) (Arabidopsis thaliana): increase lateral root branching | rescue of D15 inhibition of lateral root branching (Arabidopsis thaliana): only partially rescue | lateral root growth (Arabidopsis; 10 mM): inhibited | root length (Arabidopsis; 10 mM): inhibited | shoot mass (Arabidopsis; 10 mM): inhibited

N-(4-fluorobenzyl)-methoxycinnamic hydroxamic acid [D15]
lateral root capacity, maximum effect (Arabidopsis thaliana; 100 μM D15): completely inhibited | IC50 (Arabidopsis thaliana; D15 in 1% MS media, read-out: IC50 concentration for lateral root capacity): 30 µM | peak oscillation intensity of pDR5:LUC luminescence vs control roots (lateral root clock; D15-treated roots (100 μM per FIG. 1)): significantly lower | number of pre-branch sites (lateral root clock; D15-treated roots, p=0.009): significantly decreased | decrease in number of stage 1 (WOX5) lateral root primordia (lateral root primordia; [1]): approximately 50% | decrease in number of stage 3 (EN7) lateral root primordia (lateral root primordia; [1]): approximately 50% | emergence of lateral root primordia compared to control roots (lateral root primordia; in vivo): did not inhibit | lateral root length (Heinz tomatoes; Heinz tomatoes, D15 treatment): does not decrease | primary root length (Heinz tomatoes; tomato, D15 treatment): decreased | lateral root branching (Heinz tomatoes; tomato, p=0.99): did not have a negative effect | enzyme preference, LeCCD1 compared to LeNCED1 (LeCCD1): preferentially targets LeCCD1

CC(=O)/C=C/C=C(\C)CCC=C(C)C [pseudoionone]
herbicidal effect when sprayed on plants (Arabidopsis): herbicidal effects | method of lethality (phenotype) (Arabidopsis): caused plants to become chlorotic

CC1=C(C=O)C(C)(C)CC=C1 [safranal]
herbicidal effect when sprayed on plants (Arabidopsis): herbicidal effects | method of lethality (phenotype) (Arabidopsis): changed root cell morphology

CNc1cnn(-c2cccc(C(F)(F)F)c2)c(=O)c1Cl [norflurazone, 4-chloro-5-(methylamino)-2-(α,α,α-trifluoro-m-tolyl)-3(2H)-pyridazinone]
effect on lateral root development (primordia initiation, maintenance, development, emergence) (lateral root primordia; 500 nM norflurazone in media): blocks normal lateral root development; also recorded: blocked primordia initiation as well as maintenance, post-initiation development, and emergence | primary and lateral root growth (Heinz tomatoes; tomato, 1 μM norflurazone in media): decreased
